Laboratory results published in publication PMC10018608 (Signal Transduction and Targeted Therapy, 2023).

Columns and labels:
SARS-CoV-2 (B.1.1.7) = assay: Plaque reduction assay in VeroE6-TMPRSS2; type: cell-based; conditions: Severe acute respiratory syndrome coronavirus 2
SARS-CoV-2 (B.1.351) = assay: Plaque reduction assay in VeroE6-TMPRSS2; type: cell-based; conditions: Severe acute respiratory syndrome coronavirus 2
MERS-CoV = assay: microbe, parasite or virus in culture; type: cell-based; conditions: Middle East respiratory syndrome-related coronavirus, VeroE6/TMPRSS2, read-out: EC50 (plaque reduction)
in vitro [1] = type: in vitro ADME; conditions: human, microsomes, HLM 0.5 mg/mL, 1 μM
in vitro [2] = type: cell-based; conditions: 72 h
Description: Cells were seeded and grown in 96 well plates overnight. Then various concentrations of compounds in fresh medium were added and incubated for 72 h. Using MTT (Sigma) assay to determine the cell viability.

in vitro [3] = type: in vitro ADME, human; conditions: human plasma, equilibrium dialysis; read-out: plasma unbound fraction
human plasma protein = assay: in vitro; type: in vitro ADME; conditions: human plasma, 1 μM, equilibrium dialysis 5 h
in vivo [4] = conditions: male, Sprague-Dawley, rat
in vivo [5] = conditions: male, cynomolgus monkey
hERG channel = hERG channel (Homo sapiens, UniProt Q12809); assay: cell-based
Chain of hERG channel (Q12809 whole entry): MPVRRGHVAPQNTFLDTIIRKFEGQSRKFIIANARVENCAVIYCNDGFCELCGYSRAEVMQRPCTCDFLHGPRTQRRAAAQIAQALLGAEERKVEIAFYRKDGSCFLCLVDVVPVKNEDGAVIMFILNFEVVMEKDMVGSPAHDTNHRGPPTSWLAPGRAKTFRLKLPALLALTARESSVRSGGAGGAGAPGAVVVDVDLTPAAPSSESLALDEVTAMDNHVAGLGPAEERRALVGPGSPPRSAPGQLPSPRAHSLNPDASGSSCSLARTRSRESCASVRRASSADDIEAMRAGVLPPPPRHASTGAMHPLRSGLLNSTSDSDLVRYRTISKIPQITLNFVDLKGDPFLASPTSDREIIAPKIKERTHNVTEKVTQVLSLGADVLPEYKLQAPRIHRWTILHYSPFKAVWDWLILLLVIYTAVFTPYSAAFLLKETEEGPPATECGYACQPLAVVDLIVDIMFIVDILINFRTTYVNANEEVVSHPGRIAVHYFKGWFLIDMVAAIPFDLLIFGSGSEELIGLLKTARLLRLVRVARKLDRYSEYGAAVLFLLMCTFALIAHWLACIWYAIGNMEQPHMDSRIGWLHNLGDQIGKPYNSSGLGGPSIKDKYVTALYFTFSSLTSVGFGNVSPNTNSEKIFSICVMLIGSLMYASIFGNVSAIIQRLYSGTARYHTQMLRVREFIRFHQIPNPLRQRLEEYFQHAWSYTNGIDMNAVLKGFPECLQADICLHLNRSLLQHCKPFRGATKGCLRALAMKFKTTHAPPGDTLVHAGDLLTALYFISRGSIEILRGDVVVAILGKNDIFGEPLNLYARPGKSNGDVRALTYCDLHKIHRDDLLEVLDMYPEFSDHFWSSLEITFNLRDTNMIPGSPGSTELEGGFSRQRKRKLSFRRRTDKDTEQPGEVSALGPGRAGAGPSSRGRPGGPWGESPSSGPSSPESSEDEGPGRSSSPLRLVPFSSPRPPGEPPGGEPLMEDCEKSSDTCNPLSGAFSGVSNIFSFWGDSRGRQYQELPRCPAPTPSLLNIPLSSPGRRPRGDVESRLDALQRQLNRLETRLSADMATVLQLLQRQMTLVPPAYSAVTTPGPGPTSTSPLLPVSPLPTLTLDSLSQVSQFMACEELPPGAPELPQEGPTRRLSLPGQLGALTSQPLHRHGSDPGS

COC[C@@H](NC(=O)C1CCCC(F)(F)C1)C(=O)N[C@H](Cc1ccccc1)C(=O)C(=O)NCc1nccs1 (stereo partly drawn) [SY110, N-((R)-1-(((R)-3,4-dioxo-1-phenyl-4-((thiazol-2-ylmethyl)amino)butan-2-yl)amino)-3-methoxy-1-oxopropan-2-yl)-3,3-difluorocyclohexane-1-carboxamide]
EC50 (SARS-CoV-2 (B.1.1.7)): 1.21 µM
EC50 (SARS-CoV-2 (B.1.351)): 2.84 µM
EC50 (MERS-CoV): 6.27 µM
remaining at 0 h (in vitro [1]; 0 min, Mean, read-out: Percent Remaining (%) 0 min): 100%
remaining at 5 min (in vitro [1]; 5 min, Mean, read-out: Percent Remaining (%) 5 min): 80.7%
remaining at […] (in vitro [1]; 15 min, Mean, read-out: Percent Remaining (%) 15 min): 65.4%
remaining at 0.5 h (in vitro [1]; 30 min, Mean, read-out: Percent Remaining (%) 30 min): 48%
remaining at 0.75 h (in vitro [1]; 45 min, Mean, read-out: Percent Remaining (%) 45 min): 37.2%
remaining at 1 h (in vitro [1]; 60 min, Mean, read-out: Percent Remaining (%) 60 min): 29.8%
CLint scaled (in vitro [1]; scaling factor 1254.2): 49.2 mL/min/kg
CC50 (in vitro [2]; African green monkey, VeroE6, MTT): > 500 µM
CC50 (in vitro [2]; human, BEAS-2B, MTT): > 500 µM
CC50 (in vitro [2]; human, HUVEC, MTT): > 500 µM
fraction unbound (in vitro [3]): 0.301
Fraction of Bound (%) (human plasma protein): 69.9%
Results, acute toxicity study (mice, p.o., 1000 mg/kg, single dose): No mice died
maximal tolerated single dose (text says rats): at least 1.0 g/kg
AUC(0-inf) (in vivo [4]; iv, 1 mg/kg): 2320 ± 592 ng·h/mL
AUC(0-t) (in vivo [4]; iv, 1 mg/kg): 2300 ± 587 ng·h/mL
Cmax (in vivo [4]; iv, 1 mg/kg): 1740 ± 285 ng/mL
Tmax (in vivo [4]; iv, 1 mg/kg): 0.08 h
clearance (in vivo [4]; iv, 1 mg/kg): 7.47 ± 1.67 mL/min/kg
half-life (in vivo [4]; iv, 1 mg/kg): 4.67 ± 0.19 h
AUC(0-inf) (in vivo [4]; po, 10 mg/kg): 20200 ± 2600 ng·h/mL
AUC(0-t) (in vivo [4]; po, 10 mg/kg): 19000 ng·h/mL
Cmax (in vivo [4]; po, 10 mg/kg): 1430 ± 98.5 ng/mL
Tmax (in vivo [4]; po, 10 mg/kg): 4 ± 2 h
bioavailability (in vivo [4]; po, 10 mg/kg): 82.8%
half-life (in vivo [4]; po, 10 mg/kg): 5.16 ± 2.94 h
AUC(0-inf) (in vivo [5]; iv, 1 mg/kg): 506 ± 60.7 ng·h/mL
AUC(0-t) (in vivo [5]; iv, 1 mg/kg): 501 ± 59.9 ng·h/mL
Cmax (in vivo [5]; iv, 1 mg/kg): 567 ± 38.2 ng/mL
Tmax (in vivo [5]; iv, 1 mg/kg): 0.08 h
clearance (in vivo [5]; iv, 1 mg/kg): 33.3 mL/min/kg
half-life (in vivo [5]; iv, 1 mg/kg): 0.73 ± 0.2 h
AUC(0-t) (in vivo [5]; po, 10 mg/kg): 1220 ± 56.8 ng·h/mL
Cmax (in vivo [5]; po, 10 mg/kg): 242 ± 54.2 ng/mL
Tmax (in vivo [5]; po, 10 mg/kg): 2.33 ± 1.53 h
bioavailability (in vivo [5]; po, 10 mg/kg): 24.4%
half-life (in vivo [5]; po, 10 mg/kg): 5.57 ± 1.05 h
IC50 (hERG channel): > 30 µM
